Measurements reported in patent US8759334B2, “Compounds useful for the treatment of metabolic and inflammatory diseases” (Galapagos NV, priority 2011, dated 2014).

target: T1, GPR43 (Homo sapiens, UniProt O15552); test: Calcium mobilization assay with probenecid; type: cell-based; conditions: GPR43 stably expressing cells; triggered with sodium acetate at EC80; 2.5 mM probenecid; read-out: GPR43 assay with probenicid IC50
T1 construct: expressed in transfected cells
T1 sequence (O15552 1-330): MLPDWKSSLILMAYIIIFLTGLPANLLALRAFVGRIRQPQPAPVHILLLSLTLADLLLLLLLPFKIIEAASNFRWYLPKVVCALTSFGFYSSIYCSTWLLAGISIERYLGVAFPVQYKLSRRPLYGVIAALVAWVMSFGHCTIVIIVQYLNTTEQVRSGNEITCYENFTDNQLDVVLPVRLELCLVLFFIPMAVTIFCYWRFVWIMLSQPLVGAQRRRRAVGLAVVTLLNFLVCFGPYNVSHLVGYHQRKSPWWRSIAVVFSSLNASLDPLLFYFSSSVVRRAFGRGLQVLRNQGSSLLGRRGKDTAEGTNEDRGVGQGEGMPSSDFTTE
Method in brief: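 Cells stably expressing GPR43 plated overnight at 37 °C, then loaded 2 h with Calcium 4 dye plus 2.5 mM probenecid. […]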

Row | Compound | IC50 [nM]
1 | COc1ccc(Cl)c(OC(=O)N2CCC2(C)C(=O)N(CCCC(=O)O)Cc2ccc(Cl)cc2)c1 (centres unmarked) [Compound 215, 4-(1-((2-chloro-5-methoxyphenoxy)carbonyl)-N-(4-chlorobenzyl)-2-methylazetidine-2-carboxamido)butanoic acid] | > 1000
2 | Cc1cccc(CC2(C(=O)N(CCCC(=O)O)Cc3cccc(Cl)c3)CCN2C(=O)c2csc3ccccc23)c1 (centres unmarked) [Compound 220, 4-(1-(benzo[b]thiophene-3-carbonyl)-N-(3-chlorobenzyl)-2-(3-methylbenzyl)azetidine-2-carboxamido)butanoic acid] | 501 to 1000
3 | O=C(O)CCCN(Cc1cccc(Cl)c1)C(=O)C1(Cc2cccc(C(F)(F)F)c2)CCN1C(=O)c1csc2ccccc12 (centres unmarked) [Compound 222, 4-(1-(benzo[b]thiophene-3-carbonyl)-N-(3-chlorobenzyl)-2-(3-(trifluoromethyl)benzyl)azetidine-2-carboxamido)butanoic acid] | > 1000
4 | Cc1ccc(OC(=O)N2CCC2(C)C(=O)N(CCCC(=O)O)Cc2ccc(Cl)cc2)c(Cl)c1 (centres unmarked) [Compound 223, 4-(1-((2-chloro-4-methylphenoxy)carbonyl)-N-(4-chlorobenzyl)-2-methylazetidine-2-carboxamido)butanoic acid] | > 1000
5 | COc1ccc(OC(=O)N2CCC2(C)C(=O)N(CCCC(=O)O)Cc2ccc(Cl)cc2)c(Cl)c1 (centres unmarked) [Compound 224, 4-(1-((2-chloro-4-methoxyphenoxy)carbonyl)-N-(4-chlorobenzyl)-2-methylazetidine-2-carboxamido)butanoic acid] | > 1000
6 | O=C(O)CCCN(Cc1cccc(Cl)c1)C(=O)C1(Cc2ccc(Cl)cc2)CCN1C(=O)c1csc2ccccc12 (centres unmarked) [Compound 225, 4-(1-(benzo[b]thiophene-3-carbonyl)-N-(3-chlorobenzyl)-2-(4-chlorobenzyl)azetidine-2-carboxamido)butanoic acid] | 501 to 1000
7 | CC1(C(=O)N(CCCC(=O)O)Cc2ccc(Cl)cc2)CCN1C(=O)Oc1ccc(C(F)(F)F)cc1 (centres unmarked) [Compound 226, 4-(N-(4-chlorobenzyl)-2-methyl-1-((4-(trifluoromethyl)phenoxy)carbonyl)azetidine-2-carboxamido)butanoic acid] | > 1000
8 | CSc1ccc(OC(=O)N2CCC2(C)C(=O)N(CCCC(=O)O)Cc2ccc(Cl)cc2)cc1 (centres unmarked) [Compound 227, 4-(N-(4-chlorobenzyl)-2-methyl-1-((4-(methylthio)phenoxy)carbonyl)azetidine-2-carboxamido)butanoic acid] | 501 to 1000
9 | CC1(C(=O)N(CCCC(=O)O)Cc2ccc(Cl)cc2)CCN1C(=O)Oc1ccccc1Br (centres unmarked) [Compound 235, 4-(1-((2-bromophenoxy)carbonyl)-N-(4-chlorobenzyl)-2-methylazetidine-2-carboxamido)butanoic acid] | > 1000
10 | CC1(C(=O)N(CCCC(=O)O)Cc2ccc(Cl)cc2)CCN1C(=O)Oc1cc(C(F)(F)F)ccc1Cl (centres unmarked) [Compound 236, 4-(1-((2-chloro-5-(trifluoromethyl)phenoxy)carbonyl)-N-(4-chlorobenzyl)-2-methylazetidine-2-carboxamido)butanoic acid] | > 1000
11 | CC1(C(=O)N(CCCC(=O)O)Cc2ccc(Cl)cc2)CCN1C(=O)n1ccc2ccccc21 (centres unmarked) [Compound 237, 4-(N-(4-chlorobenzyl)-1-(1H-indole-1-carbonyl)-2-methylazetidine-2-carboxamido)butanoic acid] | > 1000
12 | CC1(C(=O)N(CCCC(=O)O)Cc2ccc(Cl)cc2)CCN1C(=O)Oc1ccc(Cl)cc1Cl (centres unmarked) [Compound 238, 4-(N-(4-chlorobenzyl)-1-((2,4-dichlorophenoxy)carbonyl)-2-methylazetidine-2-carboxamido)butanoic acid] | > 1000
13 | CC1(C(=O)N(CCCC(=O)O)Cc2ccc(Cl)cc2)CCN1C(=O)Oc1ccc(F)cc1Cl (centres unmarked) [Compound 239, 4-(1-((2-chloro-4-fluorophenoxy)carbonyl)-N-(4-chlorobenzyl)-2-methylazetidine-2-carboxamido)butanoic acid] | > 1000
14 | CS(=O)(=O)NC(=O)CCCN(Cc1cccc(Cl)c1)C(=O)C1(Cc2ccc(F)cc2)CCN1C(=O)c1csc2ccccc12 (centres unmarked) [Compound 241, 1-(benzo[b]thiophene-3-carbonyl)-N-(3-chlorobenzyl)-2-(4-fluorobenzyl)-N-(4-(methylsulfonamido)-4-oxobutyl)azetidine-2-carboxamide] | 501 to 1000
15 | COc1cccc(CC2(C(=O)N(CCCC(=O)NS(C)(=O)=O)Cc3cccc(Cl)c3)CCN2C(=O)c2csc3ccccc23)c1 (centres unmarked) [Compound 242, 1-(benzo[b]thiophene-3-carbonyl)-N-(3-chlorobenzyl)-2-(3-methoxybenzyl)-N-(4-(methylsulfonamido)-4-oxobutyl)azetidine-2-carboxamide] | 501 to 1000
16 | CS(=O)(=O)NC(=O)CCCN(Cc1cccc(Cl)c1)C(=O)C1(Cc2ccccc2F)CCN1C(=O)c1csc2ccccc12 (centres unmarked) [Compound 243, 1-(benzo[b]thiophene-3-carbonyl)-N-(3-chlorobenzyl)-2-(2-fluorobenzyl)-N-(4-(methylsulfonamido)-4-oxobutyl)azetidine-2-carboxamide] | 501 to 1000

Continued, values first:

Row | IC50 [nM] | Compound
17 | 101 to 500 | CCC1(C(=O)N(CCCS(N)(=O)=O)Cc2ccc(Cl)cc2)CCN1C(=O)c1csc2ccccc12 (centres unmarked) [Compound 216, 1-(benzo[b]thiophene-3-carbonyl)-N-(4-chlorobenzyl)-2-ethyl-N-(3-sulfamoylpropyl)azetidine-2-carboxamide]
18 | 101 to 500 | CC(C)C1(C(=O)N(CCCS(N)(=O)=O)Cc2cccc(Cl)c2)CCN1C(=O)c1csc2ccccc12 (centres unmarked) [Compound 217, 1-(benzo[b]thiophene-3-carbonyl)-N-(3-chlorobenzyl)-2-isopropyl-N-(3-sulfamoylpropyl)azetidine-2-carboxamide]
19 | 101 to 500 | COc1cccc(OC(=O)N2CCC2(C)C(=O)N(CCCC(=O)O)Cc2ccc(Cl)cc2)c1 (centres unmarked) [Compound 218, 4-(N-(4-chlorobenzyl)-1-((3-methoxyphenoxy)carbonyl)-2-methylazetidine-2-carboxamido)butanoic acid]
20 | 101 to 500 | O=C(O)CCCN(Cc1cccc(Cl)c1)C(=O)C1(Cc2ccc(F)cc2)CCN1C(=O)c1csc2ccccc12 (centres unmarked) [Compound 219, 4-(1-(benzo[b]thiophene-3-carbonyl)-N-(3-chlorobenzyl)-2-(4-fluorobenzyl)azetidine-2-carboxamido)butanoic acid]
21 | 101 to 500 | COc1cccc(CC2(C(=O)N(CCCC(=O)O)Cc3cccc(Cl)c3)CCN2C(=O)c2csc3ccccc23)c1 (centres unmarked) [Compound 221, 4-(1-(benzo[b]thiophene-3-carbonyl)-N-(3-chlorobenzyl)-2-(3-methoxybenzyl)azetidine-2-carboxamido)butanoic acid]
22 | 0.01 to 100 | CCC1(C(=O)N(CCCC(=O)NS(C)(=O)=O)Cc2cccc(Cl)c2)CCN1C(=O)c1csc2ccccc12 (centres unmarked) [Compound 228, 1-(benzo[b]thiophene-3-carbonyl)-N-(3-chlorobenzyl)-2-ethyl-N-(4-(methylsulfonamido)-4-oxobutyl)azetidine-2-carboxamide]
23 | 0.01 to 100 | C=CCC1(C(=O)N(CCCC(=O)NS(C)(=O)=O)Cc2cccc(Cl)c2)CCN1C(=O)c1csc2ccccc12 (centres unmarked) [Compound 229, 2-allyl-1-(benzo[b]thiophene-3-carbonyl)-N-(3-chlorobenzyl)-N-(4-(methylsulfonamido)-4-oxobutyl)azetidine-2-carboxamide]
24 | 101 to 500 | CS(=O)(=O)NC(=O)CCCN(Cc1cccc(Cl)c1)C(=O)C1(Cc2ccccc2)CCN1C(=O)c1csc2ccccc12 (centres unmarked) [Compound 230, 1-(benzo[b]thiophene-3-carbonyl)-2-benzyl-N-(3-chlorobenzyl)-N-(4-(methylsulfonamido)-4-oxobutyl)azetidine-2-carboxamide]
25 | 0.01 to 100 | C[C@@H](c1cccc(Cl)c1)N(CCCC(=O)NS(C)(=O)=O)C(=O)[C@@]1(C)CCN1C(=O)c1csc2ccccc12 [Compound 231, (R)-1-(benzo[b]thiophene-3-carbonyl)-N-((S)-1-(3-chlorophenyl)ethyl)-2-methyl-N-(4-(methylsulfonamido)-4-oxobutyl)azetidine-2-carboxamide]
26 | 101 to 500 | CCCC1(C(=O)N(CCCC(=O)NS(C)(=O)=O)Cc2cccc(Cl)c2)CCN1C(=O)c1csc2ccccc12 (centres unmarked) [Compound 232, 1-(benzo[b]thiophene-3-carbonyl)-N-(3-chlorobenzyl)-N-(4-(methylsulfonamido)-4-oxobutyl)-2-propylazetidine-2-carboxamide]
27 | 101 to 500 | CC(C)C1(C(=O)N(CCCC(=O)NS(C)(=O)=O)Cc2cccc(Cl)c2)CCN1C(=O)c1csc2ccccc12 (centres unmarked) [Compound 233, 1-(benzo[b]thiophene-3-carbonyl)-N-(3-chlorobenzyl)-2-isopropyl-N-(4-(methylsulfonamido)-4-oxobutyl)azetidine-2-carboxamide]
28 | 0.01 to 100 | CC1(C(=O)N(CCCC(=O)NS(C)(=O)=O)c2ccc(Cl)cc2)CCN1C(=O)c1csc2ccccc12 (centres unmarked) [Compound 234, 1-(benzo[b]thiophene-3-carbonyl)-N-(4-chlorophenyl)-2-methyl-N-(4-(methylsulfonamido)-4-oxobutyl)azetidine-2-carboxamide]
29 | 101 to 500 | CC1(C(=O)N(CCCC(=O)NS(C)(=O)=O)Cc2ccc(Cl)cc2)CCN1C(=O)c1csc2ccccc12 (centres unmarked) [Compound 240, 1-(benzo[b]thiophene-3-carbonyl)-N-(4-chlorobenzyl)-2-methyl-N-(4-(methylsulfonamido)-4-oxobutyl)azetidine-2-carboxamide]
